Assay results taken from article PMC11949107, “Polyunsaturated fatty acids and their endocannabinoid-related metabolites activity at human TRPV1 and TRPA1 ion channels expressed in HEK-293 cells” (PeerJ, 2025).
“And” between values parts separate entries of the source, which are not always exact repeats. Equal values may be shown once.

Assays:
human TRPV1 [1] = target: T1, human TRPV1 (Homo sapiens, UniProt Q8NER1); test: PMA (phorbol ester) potentiation of TRPV1 responses in HEK-293 TRPV1 cells; type: cell-based; conditions: for [Ca]i response (change in fluorescence), individual replicates: sheet Figure 5(C)
T1 construct: Life Technologies (cells); host or cells: Flp-In T-REx HEK-293
Description: (§1) Intracellular calcium [Ca]i levels were assessed using the calcium 5 kit from Molecular Devices (# R8186, Sunnyvale, CA, USA) on a FlexStation 3 Microplate Reader (Molecular Devices, Sunnyvale, CA, USA). […] Probenecid (cat # 50027; Biotium) which helps to prevent expulsion of calcium indicator from the cells was added to a final concentration of 1.25 mM. 90 µL of the dye were loaded into each well of the plate and incubated for 1 h before reading in the FlexStation 3 at 37 °C. Fluorescence was recorded every 2 s (λ excitation = 485 nm, λ emission = 525 nm) for 5 min. After 1 min of baseline recording, 20 µL of the drug, dissolved in HBSS with 1% dimethyl sulfoxide (DMSO) (cat # D2650; Sigma-Aldrich, Melbourne, Australia) was added (final DMSO concentration was 0.1% in well).
We initially determined the effect of PMA, another phorbol ester that is a protein kinase C activator ([Jiang & Fleet, 2012]) on HEK-293 TRPV1 expressing cells.
(A) Response of HEK-293 TRPV1 expressing cells for PMA at various concentration. […] Drugs were added for the duration of the bar; (D) The effects of PUFAs after potentiation of TRPV1 by PMA. […] Changes in [Ca]i are expressed as percentage of the pre-drug baseline, with the response to PMA alone at 5 min subtracted. The black circles represent the response of PUFAs without PMA pretreatment while the pink circles represent the response of PUFAs after PMA potentiation.

human TRPV1 [2] = target: T1, human TRPV1; test: Calcium 5 dye [Ca]i assay in HEK-293 Flp-In T-REx cells expressing TRPV1 (agonist response); type: cell-based; conditions: for Change in Ca5 fluorescence, individual experiments (CRC raw data): TRPV1 cells
Procedure, shortened: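 Tetracycline-induced (1 µg ml^−1, 4 h) HEK-293 T-REx cells loaded with Calcium 5 dye plus 1.25 mM probenecid for 1 h; agonist added after 1 min baseline (0.1% DMSO final), fluorescence (485/525 nm) read every 2 s for 5 min at 37 °C. Response as % change from baseline, solvent-subtracted; EC50/Emax from three-parameter logistic fit, given as pEC50.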

HEK-293 EV cells = test: Calcium 5 dye [Ca]i assay in HEK-293 empty vector (EV) cells; type: cell-based, human; conditions: 10 µM; HEK-293 EV cells; percentage of predrug baseline
Procedure, shortened: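 Tetracycline at 1 µg ml^−1 was added 4 h before testing; cells were loaded with Calcium 5 dye for 1 h and read at 37 °C, with drug added after 1 min baseline (final 0.1% DMSO). The response was the % change from the 60 s baseline after solvent subtraction, and EC50/Emax came from a three-parameter logistic fit, reported as pEC50.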

human TRPV1 [3] = target: T1, human TRPV1; test: Pre-incubation with PUFAs or capsazepine, then capsaicin (10 nM) response in HEK-293 TRPV1 cells; type: cell-based
Description: as §1, with “well). […]” for “well).”

T1 sequence (Q8NER1 whole entry): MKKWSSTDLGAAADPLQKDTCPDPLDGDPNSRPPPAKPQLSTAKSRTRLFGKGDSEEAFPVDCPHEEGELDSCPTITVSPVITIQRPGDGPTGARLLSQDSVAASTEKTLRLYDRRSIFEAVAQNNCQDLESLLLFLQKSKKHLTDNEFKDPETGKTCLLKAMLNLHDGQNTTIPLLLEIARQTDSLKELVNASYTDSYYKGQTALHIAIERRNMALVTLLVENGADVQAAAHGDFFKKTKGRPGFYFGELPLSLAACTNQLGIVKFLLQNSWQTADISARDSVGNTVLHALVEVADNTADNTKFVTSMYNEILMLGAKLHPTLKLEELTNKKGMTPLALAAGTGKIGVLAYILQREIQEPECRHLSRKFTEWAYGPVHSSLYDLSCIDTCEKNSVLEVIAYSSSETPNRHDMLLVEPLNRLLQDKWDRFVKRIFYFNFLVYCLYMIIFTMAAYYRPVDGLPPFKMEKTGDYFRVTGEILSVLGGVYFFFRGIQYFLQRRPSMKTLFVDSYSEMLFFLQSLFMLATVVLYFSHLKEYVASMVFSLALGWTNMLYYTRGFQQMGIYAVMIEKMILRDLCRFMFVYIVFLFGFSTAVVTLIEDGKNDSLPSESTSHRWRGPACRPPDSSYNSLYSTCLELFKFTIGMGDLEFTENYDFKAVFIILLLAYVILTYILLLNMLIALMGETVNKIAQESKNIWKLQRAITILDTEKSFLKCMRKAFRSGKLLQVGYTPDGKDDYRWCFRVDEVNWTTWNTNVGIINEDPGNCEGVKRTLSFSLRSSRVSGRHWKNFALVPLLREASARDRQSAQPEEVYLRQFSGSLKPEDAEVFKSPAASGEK

With `COc1cc(CNC(=O)CCCC/C=C/C(C)C)ccc1O` [Capsaicin] the “[Ca]i response (change in fluorescence), individual replicates” value (“[Ca]i response (change in fluorescence)” for short) (human TRPV1 [1]; Capsaicin alone, concentration -5 (log)) was 595.541 and 626.277 and 602.254 and 594.454 and 590.074 and 541.046 and 516.667, the “[Ca]i response (change in fluorescence)” value (human TRPV1 [1]; Capsaicin alone, concentration -6 (log)) was 552.521 and 565.654 and 354.62 and 545.98 and 564.249 and 584.634 and 580.153 and the “[Ca]i response (change in fluorescence)” value (human TRPV1 [1]; Capsaicin alone, concentration -7.52288 (log)) was 532.091 and 453.931 and 457.847 and 272.568. For the same compound, the “[Ca]i response (change in fluorescence)” value (human TRPV1 [1]; Capsaicin alone, concentration -8 (log)) was 105.919 and 177.189 and 79.3195 and 30.3097 and 60.6584 and 319.686 and 144.106, the “[Ca]i response (change in fluorescence)” value (human TRPV1 [1]; Capsaicin alone, concentration -8.52288 (log)) was 2.139 and 1.734 and 6.239 and 49.459 and 10.1781 and -5.201 and 2.9246 and 2.502 and 16.6604 and 25.7998 and 147.975 and 180.247 and the “[Ca]i response (change in fluorescence)” value (human TRPV1 [1]; Capsaicin alone, concentration -9 (log)) was 2.491 and -0.4612 and 4.215 and 6.618 and 6.288 and 4.839 and 3.5734 and 0.9298 and 2.514 and -2.854 and 3.184 and 5.152. For the same compound, the “[Ca]i response (change in fluorescence)” value (human TRPV1 [1]; Capsaicin alone, concentration -10 (log)) was -1.109 and 5.021 and -0.4125 and -2.624 and 0.2107, the “[Ca]i response (change in fluorescence)” value (human TRPV1 [1]; Capsaicin post-PMA, concentration -5 (log)) was 496.984 and 417.588 and the “[Ca]i response (change in fluorescence)” value (human TRPV1 [1]; Capsaicin post-PMA, concentration -6 (log)) was 544.156 and 380.208 and 494.359 and 527.721 and 402.607 and 284.086. For the same compound, the “[Ca]i response (change in fluorescence)” value (human TRPV1 [1]; Capsaicin post-PMA, concentration -7.52288 (log)) was 396.653 and 394.172 and 495.495 and 292.964, the “[Ca]i response (change in fluorescence)” value (human TRPV1 [1]; Capsaicin post-PMA, concentration -8 (log)) was 292.695 and 167.258 and 234.279 and 203.284 and 320.763 and 311.597 and 228.909 and the “[Ca]i response (change in fluorescence)” value (human TRPV1 [1]; Capsaicin post-PMA, concentration -8.52288 (log)) was 137.626 and 123.803 and 108.674 and 62.3148 and 135.616 and 311.329 and 67.1431 and 138.197 and 73.5753 and 51.0772. For the same compound, the “[Ca]i response (change in fluorescence)” value (human TRPV1 [1]; Capsaicin post-PMA, concentration -9 (log)) was 41.3533 and 39.7921 and 40.9396 and 31.7003 and 53.9609 and 52.809 and 35.9713 and 49.984 and 39.816 and 29.7359 and 17.3567, the “[Ca]i response (change in fluorescence)” value (human TRPV1 [1]; Capsaicin post-PMA, concentration -10 (log)) was 44.473 and 19.9944 and 42.7227 and 36.7683 and 31.3318 and 10.3982 and the “HBSS post Capsaicin, individual experiments” value (human TRPV1 [1]; HBSS after capsaicin 10 nM) was 14.4552 and 24.0374 and 16.1823. For the same compound, the “TRPV1 response after exposure to PMA” value (human TRPV1 [1]; PMA 100 nM, 5 min pretreatment) was “amplified”, the “Drugs post-PMA, individual experiments” value (human TRPV1 [1]; capsaicin 10 nM after PMA 100 nM for 5 min, response to PMA alone subtracted) was 292.695 and 167.258 and 234.279 and 203.284 and 320.763 and the “Capsaicin response without PMA, individual experiments” value (human TRPV1 [1]; capsaicin 10 nM alone) was 226.255 and 133.384 and 132.765. For the same compound, the “Drugs alone, individual experiments” value (human TRPV1 [1]; capsaicin 10 nM without PMA pretreatment) was 79.3195 and 30.3097 and 60.6584, the “Elevation of [Ca]i in HEK-293 TRPV1 cells compared with HEK-293 EV cells” value (human TRPV1 [2]; 10 µM) was “significantly greater” and the “Change of Ca5 fluorescence, Mean ± SEM, TRPV1 (10 µM)” value (human TRPV1 [2]; 10 µM, HEK-293 TRPV1 cells, percentage of predrug baseline) was 350 ± 33 %. The Emax at 30 µM (human TRPV1 [2]; HEK293, read-out: Emax ± SEM % TRPV1 (30 µM)) was 340 ± 19%, the “TRPV1 response, Mean± SEM (N)” value (human TRPV1 [2]; highest concentration of capsaicin (10 µM)) was 337 ± 56 (21) and the “Change in Ca5 fluorescence, individual experiments (CRC raw data)” value (from here on “Change in Ca5 fluorescence … (CRC raw data)”) (human TRPV1 [2]; log concentration -5 (M)) was 470.33 and 172.951 and 473.364 and 509.446 and 171.926 and 427.551 and 233.547 and 218.906 and 339.94 and 178.11 and 253.39 and 197.967 and 463.085 and 202.235 and 472.577 and 462.537 and 153.101 and 535.708 and 529.643 and 524.333. The “Change in Ca5 fluorescence … (CRC raw data)” value (human TRPV1 [2]; log concentration -6 (M)) was 464.868 and 165.225 and 461.65 and 520.53 and 312.706 and 3.214 and 3.201 and 3.988 and 340.169 and 187.118 and 486.026 and 246.165 and 485.213, the “Change in Ca5 fluorescence … (CRC raw data)” value (human TRPV1 [2]; log concentration -7 (M)) was 449.588 and 119.691 and 406.342 and 2.432 and 332.379 and 480.521 and 322.808 and 86.6522 and 310.081 and 147.599 and 431.922 and 467.245 and the “Change in Ca5 fluorescence … (CRC raw data)” value (human TRPV1 [2]; log concentration -7.52288 (M)) was 356.845 and 111.895 and 323.852 and 3.161 and 274.896 and 259.762 and 73.7365 and 34.2854 and 273.106 and 132.986 and 393.207 and 420.023 and 372.386. The “Change in Ca5 fluorescence … (CRC raw data)” value (human TRPV1 [2]; log concentration -8 (M)) was 5.385 and 96.7773 and 164.958 and 3.572 and 5.951 and 47.2327 and 7.175 and 1.822 and 309.776 and 125.652 and 333.972 and 270.42 and 149.94, the “Change in Ca5 fluorescence … (CRC raw data)” value (human TRPV1 [2]; log concentration -8.52288 (M)) was 11.2452 and 61.0751 and 5.8468 and 39.7141 and 6.931 and 3.397 and 5.378 and 0.9947 and 335.917 and 103.111 and 65.1245 and 4.361 and 1.4546 and the “Change in Ca5 fluorescence … (CRC raw data)” value (human TRPV1 [2]; log concentration -9 (M)) was 6.236 and 19.5627 and 8.465 and 57.6325 and 2.89 and 1.796 and 10.3317 and 2.025 and 308.34 and 50.3171 and 51.1654 and 4.4283 and 2.369 and 122.651 and 6.769 and 5.267. The “Change in Ca5 fluorescence” value (human TRPV1 [2]; maximal effective concentration, HEK-293 TRPV1 cells, dye saturation control) was 435 ± 15% and the “Change of Ca5 fluorescence, Mean ± SEM, EV (10 µM)” value (HEK-293 EV cells) was 12 ± 2%.
With `Oc1cc2c(cc1O)CN(C(=S)NCCc1ccc(Cl)cc1)CCC2` [capsazepine, reference compound] the “Effect of pre-treatment on the capsaicin response” value (human TRPV1 [3]; 10 µM, 5 min exposure, then capsaicin 10 nM) was “prevented”, the “Post-capsaicin: response to subsequent capsaicin addition, individual experiments” value (human TRPV1 [3]; capsaicin 10 nM after 5 min drug 10 µM, TRPV1 cells, listed as CAPZ) was 10.3375 and -4.09 and 24.8571 and 12.9593 and -2.666 and 6.069 and the “Pre-capsaicin: response to first drug, individual experiments” value (human TRPV1 [3]; drug 10 µM for 5 min, TRPV1 cells, listed as CAPZ) was 25.3514 and 3.867 and 12.8382 and 10.4656 and 4.742 and 37.2822.
